Measurements published in US7183267B2, “β-lactamase inhibitors and methods of use thereof” (priority 2003, dated 2007).

How the values were obtained:
AmpC β-lactamase = biological target: T1, AmpC β-lactamase (Escherichia coli, UniProt P00811); conditions: binding to AmpC; ITC
T1 construct: made in house; host or cells: E. coli BL21 (DE3)
Description: (§1) Isothermal titration calorimetry was performed on a high-precision VP-ITC titration calorimeter (Microcal Inc., Northampton, Mass.). β-Lactamase solutions were titrated with inhibitors in 50 mM sodium phosphate, 2% DMSO, pH 7.0, with β-lactamase concentrations ranging from 15 to 25 μM and inhibitor concentrations ranging from 300 to 1000 μM. The heat evolved from each injection was obtained by integrating the calorimetric signal. Heat of binding was obtained as the difference between the heat of reaction and the heat of inhibitor dilution. Data were analyzed using Origin 7.0 (OriginLab Corporation, Northampton, Mass.).
Isothermal titration calorimetry was undertaken to determine the thermodynamic characteristics of binding to AmpC β-lactamase.

[1] = system: methicillin resistant S. aureus ATCC 33591 (MRSA-ATCC); assay: Matrix system: oxacillin plus β-lactamase inhibitor, MRSA-ATCC; format: cell-based; conditions: for MIC of oxacillin: matrix study
Description: To each well of a 96 well microtiter plate was added 47.5 μl of MHB. A volume of 2.5 μl of each dilution of oxacillin was then transferred to appropriate wells containing the medium. All wells, except the sterility control wells, were then inoculated with 50 μl of a diluted cell suspension to give a final volume of 100 μl and a final cell density of 5×10^4 CFU/well. The volume in the sterility control wells was adjusted to 100 μl with MHB. A sterile pipette tip was used to mix the contents of each well (one tip was used going from the low to the high concentration in the same column). The microtiter plates were covered with the lids and were placed in large Stratagene Big Blue plates (Cat. # 400041). Four large kimwipes moistened with tap water were placed near the edges of the Stratagene plates to prevent evaporation of the medium. The microtiter plates were incubated for at least 24 hours at 35° C. The plates were then evaluated for growth in each well. Controls included: medium sterility and negative control (medium and bacteria only).
A numerical code was used to evaluate the extent of growth as indicated below. • 0: absence of growth • 1: barely visible (faint) growth • 2: fair growth but less than the negative solvent control • 3: growth is equivalent to the negative solvent control.
The lowest dose at which no visible growth is observed was determined to be the MIC value.
The effect of the four compounds of the present invention on oxacillin resistance of the MRSA strains was determined using a matrix system. The β-lactamase inhibitors were tested at 5 doses against up to eleven concentrations of oxacillin. […] A 96-well microtiter plate was used for the matrix system. The procedure was identical to that described above for the MIC determination, with the exception that both oxacillin and one each of the β-lactamase inhibitors was added, 2.5 μl each, to the wells prior to addition of the test organisms.
Matrix Study:Oxacillin and Compound FL201 with MRSA-ATCC
Matrix Study: Oxacillin and Compound Fl202 with MRSA-ATCC

β-lactamase wt = β-lactamase wt (Escherichia coli, UniProt P62593); assay: Isothermal titration calorimetry, binding enthalpy, wild type
Description: (§2) The binding of the compounds of the present invention to β-lactamase was also measured by isothermal titration calorimetry.
(§3) These experiments, in combination with the inhibition assays, indicate that the compounds identified in this disclosure bind to the wild type as well as drug resistant beta lactamases with favorable binding enthalpies. This is a very important characteristic from the point of view of further optimization since it facilitates the achievement of extremely high affinities and low susceptibilities to drug resistant mutations and naturally occurring polymorphisms.
as §1

β-lactamase R244S = β-lactamase R244S (Escherichia coli, UniProt P62593, R241S); assay: Isothermal titration calorimetry, binding enthalpy, R244S mutant
Description: as §2, §3, §1

β-lactamase E104K = β-lactamase E104K (Escherichia coli, UniProt P62593, E102K); assay: Isothermal titration calorimetry, binding enthalpy, E104K mutant
Description: as §2, §3, §1

β-lactamase M69I = β-lactamase M69I (Escherichia coli, UniProt P62593, M67I); assay: Isothermal titration calorimetry, binding enthalpy, M69I mutant
Description: as §2, §3, §1

T1 sequence (P00811 20-377): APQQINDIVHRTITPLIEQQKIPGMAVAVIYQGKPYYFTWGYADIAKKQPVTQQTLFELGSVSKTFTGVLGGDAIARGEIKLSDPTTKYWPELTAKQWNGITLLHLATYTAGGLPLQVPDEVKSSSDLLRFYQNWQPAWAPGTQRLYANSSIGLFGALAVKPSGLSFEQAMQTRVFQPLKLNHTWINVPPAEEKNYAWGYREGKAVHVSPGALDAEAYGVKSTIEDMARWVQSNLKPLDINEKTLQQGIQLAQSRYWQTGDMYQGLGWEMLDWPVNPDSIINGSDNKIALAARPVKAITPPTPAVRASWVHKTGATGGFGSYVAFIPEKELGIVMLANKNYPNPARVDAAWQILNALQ

What does the source list for O=C(OCc1ccccc1)c1cc(B(O)O)cc([N+](=O)[O-])c1 [Compound F1201]?
ΔG (AmpC β-lactamase): -27.47 kJ/mol; ΔH (AmpC β-lactamase): -21.27 kJ/mol; −TΔS (AmpC β-lactamase): -6.201 kJ/mol; MIC of oxacillin ([1]; with compound 1 μg/ml): 16 mg/L; MIC of oxacillin ([1]; with compound 2 μg/ml): 2 mg/L; MIC of oxacillin ([1]; with compound 4 μg/ml): 0.5 mg/L; MIC of oxacillin ([1]; with compound 8 μg/ml): <0.064 mg/L; extent of growth (numerical code) ([1]; oxacillin 0 μg/ml + compound 1 μg/ml): 3; extent of growth (numerical code) ([1]; oxacillin 0 μg/ml + compound 2 μg/ml): 3; extent of growth (numerical code) ([1]; oxacillin 0 μg/ml + compound 4 μg/ml): 2; extent of growth (numerical code) ([1]; oxacillin 0 μg/ml + compound 8 μg/ml): 1; extent of growth (numerical code) ([1]; oxacillin 0 μg/ml + compound 16 μg/ml): 0; extent of growth (numerical code) ([1]; oxacillin 0.064 μg/ml + compound 1 μg/ml): 1; extent of growth (numerical code) ([1]; oxacillin 0.064 μg/ml + compound 2 μg/ml): 1; extent of growth (numerical code) ([1]; oxacillin 0.064 μg/ml + compound 4 μg/ml): 1; extent of growth (numerical code) ([1]; oxacillin 0.064 μg/ml + compound 8 μg/ml): 0; extent of growth (numerical code) ([1]; oxacillin 0.064 μg/ml + compound 16 μg/ml): 0; extent of growth (numerical code) ([1]; oxacillin 0.125 μg/ml + compound 1 μg/ml): 1; extent of growth (numerical code) ([1]; oxacillin 0.125 μg/ml + compound 2 μg/ml): 1; extent of growth (numerical code) ([1]; oxacillin 0.125 μg/ml + compound 4 μg/ml): 1; extent of growth (numerical code) ([1]; oxacillin 0.125 μg/ml + compound 8 μg/ml): 0; extent of growth (numerical code) ([1]; oxacillin 0.125 μg/ml + compound 16 μg/ml): 0; extent of growth (numerical code) ([1]; oxacillin 0.25 μg/ml + compound 1 μg/ml): 1; extent of growth (numerical code) ([1]; oxacillin 0.25 μg/ml + compound 2 μg/ml): 1; extent of growth (numerical code) ([1]; oxacillin 0.25 μg/ml + compound 4 μg/ml): 1; extent of growth (numerical code) ([1]; oxacillin 0.25 μg/ml + compound 8 μg/ml): 0; extent of growth (numerical code) ([1]; oxacillin 0.25 μg/ml + compound 16 μg/ml): 0; extent of growth (numerical code) ([1]; oxacillin 0.5 μg/ml + compound 1 μg/ml): 1; extent of growth (numerical code) ([1]; oxacillin 0.5 μg/ml + compound 2 μg/ml): 1; extent of growth (numerical code) ([1]; oxacillin 0.5 μg/ml + compound 4 μg/ml): 0; extent of growth (numerical code) ([1]; oxacillin 0.5 μg/ml + compound 8 μg/ml): 0; extent of growth (numerical code) ([1]; oxacillin 0.5 μg/ml + compound 16 μg/ml): 0; extent of growth (numerical code) ([1]; oxacillin 1 μg/ml + compound 1 μg/ml): 1; extent of growth (numerical code) ([1]; oxacillin 1 μg/ml + compound 2 μg/ml): 1; extent of growth (numerical code) ([1]; oxacillin 1 μg/ml + compound 4 μg/ml): 0; extent of growth (numerical code) ([1]; oxacillin 1 μg/ml + compound 8 μg/ml): 0; extent of growth (numerical code) ([1]; oxacillin 1 μg/ml + compound 16 μg/ml): 0; extent of growth (numerical code) ([1]; oxacillin 2 μg/ml + compound 1 μg/ml): 1; extent of growth (numerical code) ([1]; oxacillin 2 μg/ml + compound 2 μg/ml): 0; extent of growth (numerical code) ([1]; oxacillin 2 μg/ml + compound 4 μg/ml): 0; extent of growth (numerical code) ([1]; oxacillin 2 μg/ml + compound 8 μg/ml): 0; extent of growth (numerical code) ([1]; oxacillin 2 μg/ml + compound 16 μg/ml): 0; extent of growth (numerical code) ([1]; oxacillin 4 μg/ml + compound 1 μg/ml): 1; extent of growth (numerical code) ([1]; oxacillin 4 μg/ml + compound 2 μg/ml): 0; extent of growth (numerical code) ([1]; oxacillin 4 μg/ml + compound 4 μg/ml): 0; extent of growth (numerical code) ([1]; oxacillin 4 μg/ml + compound 8 μg/ml): 0; extent of growth (numerical code) ([1]; oxacillin 4 μg/ml + compound 16 μg/ml): 0; extent of growth (numerical code) ([1]; oxacillin 8 μg/ml + compound 1 μg/ml): 1; extent of growth (numerical code) ([1]; oxacillin 8 μg/ml + compound 2 μg/ml): 0; extent of growth (numerical code) ([1]; oxacillin 8 μg/ml + compound 4 μg/ml): 0; extent of growth (numerical code) ([1]; oxacillin 8 μg/ml + compound 8 μg/ml): 0; extent of growth (numerical code) ([1]; oxacillin 8 μg/ml + compound 16 μg/ml): 0; extent of growth (numerical code) ([1]; oxacillin 16 μg/ml + compound 1 μg/ml): 0; extent of growth (numerical code) ([1]; oxacillin 16 μg/ml + compound 2 μg/ml): 0; extent of growth (numerical code) ([1]; oxacillin 16 μg/ml + compound 4 μg/ml): 0; extent of growth (numerical code) ([1]; oxacillin 16 μg/ml + compound 8 μg/ml): 0; extent of growth (numerical code) ([1]; oxacillin 16 μg/ml + compound 16 μg/ml): 0; extent of growth (numerical code) ([1]; oxacillin 32 μg/ml + compound 1 μg/ml): 0; extent of growth (numerical code) ([1]; oxacillin 32 μg/ml + compound 2 μg/ml): 0; extent of growth (numerical code) ([1]; oxacillin 32 μg/ml + compound 4 μg/ml): 0; extent of growth (numerical code) ([1]; oxacillin 32 μg/ml + compound 8 μg/ml): 0; extent of growth (numerical code) ([1]; oxacillin 32 μg/ml + compound 16 μg/ml): 0; extent of growth (numerical code) ([1]; oxacillin 64 μg/ml + compound 1 μg/ml): 0; extent of growth (numerical code) ([1]; oxacillin 64 μg/ml + compound 2 μg/ml): 0; extent of growth (numerical code) ([1]; oxacillin 64 μg/ml + compound 4 μg/ml): 0; extent of growth (numerical code) ([1]; oxacillin 64 μg/ml + compound 8 μg/ml): 0; extent of growth (numerical code) ([1]; oxacillin 64 μg/ml + compound 16 μg/ml): 0; ΔH wt (β-lactamase wt): -13.39 kJ/mol; ΔH R244S (β-lactamase R244S): -27.2 kJ/mol; ΔH E104K (β-lactamase E104K): -14.64 kJ/mol; ΔH M69I (β-lactamase M69I): -10.04 kJ/mol
